The subject of assay [1] is Histone deacetylase (Homo sapiens). In words: Inhibition of HDAC at 200 uM relative to control.
A further assay has as its system BXPC-3. In words: Cytotoxicity against human BxPC3 cells at 5 uM. It counts as functional. Conditions: read-out: GI.

Data on 7 molecules can be found in ChEMBL document CHEMBL1144809, “Synthesis and biological evaluation of histone deacetylase inhibitors that are based on FR235222: a cyclic tetrapeptide scaffold” (Bioorg Med Chem Lett, 2008).

Turning to `CC[C@@H]1NC(=O)[C@H](CCCCNC(C)=O)NC(=O)[C@H]2CCCN2C(=O)[C@H](Cc2ccccc2)NC1=O`, the inhibition (commonly the drop in the measured response relative to a control, in per cent) in assay [1] came out at 38%. Moreover, the inhibition of growth at 5 µM with BXPC-3 was 38%.

Regarding `CCC(=O)CCCCC[C@@H]1NC(=O)[C@H]2CCCCN2C(=O)[C@H]([C@@H](C)CC)NC(=O)[C@H](Cc2cn(OC)c3ccccc23)NC1=O` [APICIDIN], the inhibition of growth at 5 µM in the assay on BXPC-3 worked out at 98%.

With `CC[C@@H]1NC(=O)[C@H](CCCNC(=N)N)NC(=O)[C@H]2CCCN2C(=O)[C@@H](Cc2ccccc2)NC1=O`, in assay [1], the inhibition came to 97%. Further, the inhibition of growth at 5 µM with BXPC-3 is 17%.

In turn, `CC[C@@H]1NC(=O)[C@H](CCCNC(=N)N)NC(=O)[C@H]2CCCN2C(=O)[C@H](Cc2ccccc2)NC1=O` showed an inhibition in assay [1] of 97%. Besides, in the assay on BXPC-3, the inhibition of growth at 5 µM amounted to 27%.

On to `CC[C@@H]1NC(=O)[C@H](CCCNC(=N)N)NC(=O)[C@H]2CCCN2C(=O)[C@@H]2Cc3ccccc3CN2C1=O`, for which the inhibition in assay [1] came to 83%. The inhibition of growth at 5 µM in the assay with BXPC-3 came to 0%.

As for `CC[C@@H]1NC(=O)[C@H](CCCNC(=N)N)NC(=O)[C@H]2CCCCN2C(=O)[C@@H](Cc2ccccc2)NC1=O`, the inhibition in assay [1] came to 98%. In the assay with BXPC-3, the inhibition of growth at 5 µM turned out to be 20%.

The molecule `CC[C@@H]1NC(=O)[C@H](CCCCNC(C)=O)NC(=O)[C@H]2CCCN2C(=O)[C@H](Cc2ccccc2)N(C)C1=O` displayed an inhibition in assay [1] of 86%. Further, in the assay with BXPC-3, the inhibition of growth at 5 µM was found to be 19%.
